Results from patent US6281354A, “Analogs of duocarmycin and cc-1065” (The Scripps Research Institute, priority 1999, dated 2001).
Like-named read-outs stand apart in the source and are kept apart here.

Experiments:
[1] = In vitro cytotoxic activity; settings: for cytotoxic potency of the two enantiomers compared: natural versus unnatural enantiomer; for cytotoxic activity of seco precursor compared with cyclopropane agent: versus 17-20, 23, 30 and 31, respectively
[2] = tested on: duplex DNA (w794, w836, c988, c820, c1346); assay type: biochemical, SV40; settings: for sequence preference at the alkylation site: consensus alkylation sequence; for concentration at which DNA is alkylated / more efficient DNA alkylation than (+)-N--BOC-DSA: natural enantiomers
[3] = Chemical/aqueous solvolysis reactivity followed by UV; assay type: physicochemical; settings: for solvolysis rate constant κ, pH 3: pH 3, 50% CH3 OH-buffer
Text: The solvolysis reactivities of N--BOC-CNA (78) and CNA (79) were followed spectrophotometrically by UV at both pH 3 (50% CH3 OH-buffer, buffer=4:1:20 v/v/v 0.1 M citric acid, 0.2 M Na2 HPO4, H2 O) and pH 7 (50% CH3 OH--H2 O). […] Particularly informative are comparisons of the benzo series of agents that differ only in the C-ring size (i.e., 76-79). Solvolysis reactivity smoothly increases through the series CBI<CBQ<CNA with both the N--BOC derivatives and the free NH derivatives.
Aqueous Solvolysis of N--BOC-CNA (78) and CNA (79). Samples of 78 (150 μg) and 79 (150 [g) were dissolved in CH3 OH (1.5 mL) and the resulting solutions were mixed with aqueous buffer (pH 3, 1.5 mL, 4:1:20 (v:v:v) 0.1 M citric acid, 0.2 M Na2 HPO4, and deionized H2 O respectively). Similarly, a solution of 78 (150 μg) in CH3 OH (1.5 mL) was mixed with deionized H2 O (pH 7, 1.5 mL). The UV spectra of the solutions were measured immediately after mixing with the appropriate aqueous solution. The blank and the solvolysis reaction solutions were stoppered, protected from light, and allowed to stand at 25° C. The total reaction times reflect those required to observe no further change in absorbance. For the solvolysis of 78 at pH 3, the UV spectrum was taken every 30 s for 10 min and then every 3 min for the next 40 min. The decrease of the absorbance at 319 nm was monitored. […] For the solvolysis of 78 at pH 7, the UV spectrum was monitored every 5 min for 19 h. […] For the solvolysis of 79 at pH 3, the UV spectrum was monitored every 2 min for the first 110 min and then every 10 min for the next 4 h. The decrease in the absorbance at 345 nm was recorded.

[4] = 50% ch3oh-buffer, pH 3, pH 3, 50% CH3 OH-buffer, 25° C., read-out: solvolysis t1/2, pH 3 (h) (converted)
[5] = 50% ch3oh-buffer, pH 3, pH 3, 50% CH3 OH-buffer, 25° C., read-out: solvolysis t1/2, pH 3 (min)

In the case of `CC(C)(C)OC(=O)N1CCCC2CC23C1=CC(=O)c1ccccc13` (single isomer, unassigned; (+)) [(+)-78], the “cytotoxic potency of the two enantiomers compared” value [1] is reported as “more potent activity”.

In the case of `COC(=O)c1cc2c([nH]1)C(=O)C=C1N(C(=O)OC(C)(C)C)C[C@H]3C[C@]123` [(+)-N--BOC-DSA], the “AT-rich adenine N3 alkylation selectivity (size of site)” value [2] is reported as 2 base-pair.

With `O=C1C=C2NCC3CC23c2ccccc21` (stereo not shown) [CBI, reference compound] the “solvolysis reactivity difference, CBI versus CBQ” value [3] was 10 -fold and the “solvolysis reactivity/stability in words or rank order” value (“solvolysis reactivity/stability” below) [3] was “CBI<CBQ<CNA”.

In the case of `O=C1C=C2NCCC3CC23c2ccccc21` (stereo not shown) [CBQ, reference compound], the “solvolysis reactivity difference, CBI versus CBQ” value [3] is reported as 10 -fold and the “solvolysis reactivity/stability” value [3] is reported as “CBI<CBQ<CNA”.

With `COC(=O)c1cc2c([nH]1)C(=O)C=C1N(C(=O)OC(C)(C)C)CC3CC123` (stereo not shown) [N--BOC-DSA] the “AT-rich adenine N3 alkylation selectivity (size of site)” value [2] was 2 base-pair, the “reaction time required for substantial or complete DNA alkylation” value ([2]; 25-37° C.) was 2 to 7 days and the “sequence preference at the alkylation site” value (“sequence preference” for short) [2] was 5'-AA>5'-TA.

In the case of `COC(=O)c1cc2cc(NC(=O)c3cc4c([nH]3)C(=O)C=C3N(C(=O)OC(C)(C)C)CC5CC345)ccc2[nH]1` (stereo not shown) [compound 17, N-(Methyl 1H-Indol-5-yl-2-carboxylate)-2-((tert-butyloxy)carbonyl)-1,2,8,8a-tetrahydrocyclopropa[c]pyrrolo[3,2-e]indol-4-one-7-carboxamide], the “AT-rich adenine N3 alkylation selectivity (size of site)” value [2] is reported as 3.5 base-pair and the “cytotoxic potency compared with simple derivatives N--BOC-DSA (4) and N--Ac-DSA” value ([1]; natural enantiomers) is reported as “essentially indistinguishable”.

With `COC(=O)c1cc2cc(NC(=O)c3cc4cc(NC(=O)c5cc6c([nH]5)C(=O)C=C5N(C(=O)OC(C)(C)C)CC7CC567)ccc4[nH]3)ccc2[nH]1` (stereo not shown) [compound 18, N-{2-[N-(2-Methoxycarbonyl-1H-indol-5-yl)]carbamoyl-1H-indol-5-yl}-2-(tert-butyloxycarbonyl)-1,2,8,8a-tetrahydrocyclopropa[c]pyrrolo[3,2-e]indol-4-one-6-carboxamide] the “AT-rich adenine N3 alkylation selectivity (size of site)” value [2] was 5 base-pair, the “comparison of DNA alkylation selectivity” value [2] was “no differences in their DNA alkylation selectivity” and the “less efficient at alkylating DNA than DSA-indole2” value [2] was “ca. 100 ×”. The “slower DNA alkylation than DSA-indole2” value [2] was “ca. 1000 ×”, the “unnatural enantiomer less effective at DNA alkylation than natural enantiomer” value (from here on “unnatural enantiomer less effective”) [2] was “approximately 10 ×” and the “cytotoxic potency, effect of terminal N^2 substituent (18, 23, 24 compared)” value ([1]; natural and unnatural enantiomers) was “essentially indistinguishable”. The “cytotoxic potency compared with simple derivatives N--BOC-DSA (4) and N--Ac-DSA” value ([1]; natural enantiomers) was “essentially indistinguishable”.

In the case of `COC(=O)c1cc2c3c(ccc2[nH]1)N(C(=O)c1cc2c([nH]1)C(=O)C=C1N(C(=O)OC(C)(C)C)CC4CC124)CC3` (stereo not shown) [compound 19, 6-[(Methyl 1,2-Dihydro-3H-pyrrolo[3,2-e]indole-3-yl)carbonyl-7-carboxylate]-2-((tert-butyloxy)carbonyl)-1,2,8,8a-tetrahydrocyclopropa[c]-pyrrolo[3,2-e]indol-4-one], the “AT-rich adenine N3 alkylation selectivity (size of site)” value [2] is reported as 3.5 base-pair and the “more potent cytotoxicity than simple derivatives N--BOC-DSA (4) and N--Ac-DSA” value ([1]; natural enantiomers) is reported as “less than 10 ×”.

In the case of `COC(=O)c1cc2cc(NC(=O)c3cc4cc(NC(=O)c5cc6c7c(cc(O)c6[nH]5)N(C(C)=O)CC7CCl)ccc4[nH]3)ccc2[nH]1` (stereo not shown) [compound 22, N-{2-[N-(2-Methoxycarbonyl-1H-indol-5-yl)]carbamoyl-1H-indol-5-yl}-3-acetyl-1-(chloromethyl)-5-hydroxy-1,2-dihydro-3H-pyrrolo[3,2-e]indole-7-carboxamide], the “cytotoxic activity of seco precursor compared with cyclopropane agent” value [1] is reported as “not distinguishable”.

With `COC(=O)c1cc2c3c(ccc2[nH]1)N(C(=O)c1cc2c4c(cc(O)c2[nH]1)N(C(=O)c1cc2c5c(ccc2[nH]1)N(C(N)=O)CC5)CC4CCl)CC3` (stereo not shown) [compound 28, 7-[(Methyl 1,2-Dihydro-(3H-pyrrolo[3,2-e]indole-3-yl)carbonyl-7-carboxy-late)-3-(3-carbamoyl-1,2-dihydro-3H-pyrrolo[3,2-e]indol-7-yl)carbonyl]-1-(chloromethyl)-5-hydroxy-1,2-dihydro-3H-pyrrolo[3,2-e]indole] the “cytotoxic activity of seco precursor compared with cyclopropane agent” value [1] was “not distinguishable”.

With `COC(=O)c1cc2c3c(ccc2[nH]1)N(C(=O)c1cc2c4c(cc(O)c2[nH]1)N(C(=O)c1cc2cc(OC)c(OC)c(OC)c2[nH]1)CC4CCl)CC3` (stereo not shown) [compound 29, 7-[(Methyl 1,2-Dihydro-3H-pyrrolo[3,2e]indole-3-yl)carbonyl-7-carboxylate]-3-[(5,6,7-trimethoxyindol-2-yl)carbonyl]-1-(chloromethyl)-5-hydroxy-1,2-dihydro-3H-pyrrolo[3,2-e]indole] the “cytotoxic activity of seco precursor compared with cyclopropane agent” value [1] was “not distinguishable”.

For `COC(=O)c1cc2c3c(ccc2[nH]1)N(C(=O)c1cc2c([nH]1)C(=O)C=C1N(C(=O)c4cc5cc(OC)c(OC)c(OC)c5[nH]4)CC4CC124)CC3` (stereo not shown) [compound 31], the “cytotoxic potency compared with typical agents” value [1] was “essentially equipotent with the typical agents”.

In the case of `COC(=O)c1cc2c([nH]1)C(=O)C=C1N(C(C)=O)CC3CC123` (stereo not shown) [compound 40, Methyl 2-Acetyl-1,2,8,8a-tetrahydrocyclopropa[c]pyrrolo[3,2-e]indol-4-one-6-carboxylate], the “sequence preference” value [2] is reported as 5'-AA>5'-TA, the “concentration at which DNA is alkylated” value [2] is reported as 10^-3 M and the “more efficient DNA alkylation than (+)-N--BOC-DSA” value [2] is reported as “approximately 10 ×”. The “unnatural enantiomer less effective” value [2] was “approximately 10 ×”.

With `COC(=O)c1cc2c([nH]1)C(=O)C=C1N(C(=O)OC)CC3CC123` (stereo not shown) [compound 41, Methyl 2-(Methoxycarbonyl)-1,2,8,8a-tetrahydrocyclopropa[c]pyrrolo[3,2-e]indol-4-one-6-carboxylate] the “sequence preference” value [2] was 5'-AA>5'-TA, the “concentration at which DNA is alkylated” value [2] was 10^-3 M and the “more efficient DNA alkylation than (+)-N--BOC-DSA” value [2] was “approximately 10 ×”. The “unnatural enantiomer less effective” value [2] was “approximately 10 ×”.

In the case of `COC(=O)c1cc2c([nH]1)C(=O)C=C1N(C(=O)c3cc4c5c(ccc4[nH]3)N(C(=O)c3cc4c6c(ccc4[nH]3)N(C(N)=O)CC6)CC5)CC3CC123` (stereo not shown) [compound 61], the “cytotoxic potency of the two enantiomers compared” value [1] is reported as “nearly equipotent”.

With `CC(C)(C)OC(=O)N1CCCC2CC23C1=CC(=O)c1ccccc13` (stereo not shown) [compound 78] the “more reactive than N--BOC-DSA (solvolysis)” value [3] was 10^3 -10^4 ×, the “more reactive than the corresponding CBI derivative (solvolysis)” value [3] was 4750 × and the “solvolysis reactivity/stability” value [3] was “sufficiently reactive to undergo rapid solvolysis even at pH 7”. The half-life [3, 4] was 0.028 h, the half-life [3, 5] was 0.0283 h and the half-life ([3]; 50% ch3oh-h2o, pH 7, pH 7, 50% CH3 OH--H2 O, 25° C., read-out: solvolysis t1/2, pH 7 (converted)) was 2.1 h. The half-life ([3]; 50% methanol-water, pH 7, pH 7, no added acid catalysis, read-out: solvolysis t1/2, pH 7 (converted)) was 2.1 h, the “solvolysis reactivity/stability” value ([3]; listed as N--BOC-CNA) was “between that of N--BOC-CBQ and the exceptionally reactive N--BOC-CI” and the “solvolysis rate constant κ, pH 3” value ([3]; 25° C.) was 6.90×10^-3 s^-1. The “solvolysis rate constant κ, pH 7” value ([3]; pH 7, 50% CH3 OH--H2 O, 25° C.) was 9.16×10^-5 s^-1 and the “solvolysis t1/2, pH 7 (h)” value ([3]; pH 7, no added acid catalysis) was 2.1 h.

In the case of `O=C1C=C2NCCCC3CC23c2ccccc21` (stereo not shown) [compound 79, 1,2,3,4,11,11a-Hexahydrocyclopropa[c]naphtho[2,1-b]azepin-6-one], the “more reactive than the corresponding CBI derivative (solvolysis)” value [3] is reported as 1500 ×, the “reactivity difference, CNA versus CBQ” value [3] is reported as “over a hundred-fold difference in reactivity” and the “solvolysis reactivity/stability” value [3] is reported as “sufficiently reactive to undergo rapid solvolysis even at pH 7”. For the same molecule, the half-life [3, 4] was 0.62 h, the half-life [3, 5] was 0.617 h and the “solvolysis reactivity/stability” value ([3]; listed as CNA) was “CBI<CBQ<CNA”. For the same molecule, the “solvolysis reactivity/stability” value ([3]; listed as CNA (79)) was “considerably more stable than N--BOC-CNA (78)” and the “solvolysis rate constant κ, pH 3” value ([3]; 25° C.) was 3.10×10^-4 s^-1.

For `COC(=O)N1CCCC2CC23C1=CC(=O)c1ccccc13` (stereo not shown) [compound 97, N-(Methoxycarbonyl)-1,2,3,4,11,11a-hexahydrocyclopropa[c]naphtho[2,1-b]azepin-6-one], the “more reactive than N--BOC-DSA (solvolysis)” value [3] was 10^3 -10^4 × and the half-life ([3]; 50% methanol-water, pH 7, no added acid catalysis, read-out: solvolysis t1/2, pH 7 (converted)) was 2.1 h.

For `COc1cc2cc(C(=O)N3CCCC4CC45C3=CC(=O)c3ccccc35)[nH]c2c(OC)c1OC` (stereo not shown) [compound 98, N-[(5,6,7-Trimethoxyindol-2-yl)carbonyl]-1,2,3,4,11,11a-hexahydrocyclopropa-[c]naphtho[2,1-b]azepin-6-one], the “more potent cytotoxicity than N--BOC-CNA (78), natural enantiomer” value ([1]; natural enantiomer) was 5-10 × and the “difference in cytotoxic potency versus N--BOC-CNA, unnatural enantiomer” value ([1]; unnatural enantiomers) was 1-2 ×.

With `COC(=O)c1cc2c([nH]1)C(=O)C=C1N(C(=O)OC(C)(C)C)C[C@@H]3C[C@@]123` [ent-(-)-N--BOC-DSA] the “AT-rich adenine N3 alkylation selectivity (size of site)” value [2] was 2 base-pair.

In the case of `COC(=O)c1cc2c([nH]1)C(=O)C=C1N(C(=O)c3cc4cc(OC)c(OC)c(OC)c4[nH]3)C[C@@H]3C[C@@]123` [ent-(-)-duocarmycin SA, reference compound], the “AT-rich adenine N3 alkylation selectivity (size of site)” value [2] is reported as 3.5 base-pair.
